From patent EP0777471B1, “INHIBITION OF LEUKOTRIENE BIOSYNTHESIS WITH UREA DERIVATIVES” (MINNESOTA MINING AND MANUFACTURING COMPANY, priority 1994, dated 1996)
Values joined by “and” are separate entries in the source; they are usually repeats but may differ in a detail not shown here. Equal entries are not always repeated. Where two headings read alike, the source gives them in different places.

Tests used:
[1] = biological target: T1, 5-lipoxygenase (Homo sapiens, UniProt P09917); experiment: 5-Lipoxygenase inhibition in human leukocytes (A23187-stimulated, LTC4 radioimmunoassay); assay type: cell-based; conditions: human leukocytes, A23187 Calcium Ionophore, LTC4 formed; read-out: IC50
T1 construct: Whole human blood is collected by venipuncture into EDTA; endogenous in cells; host or cells: leukocytes isolated from whole human blood (dextran sedimentation, hypotonic lysis)
T1 sequence (P09917 1-674): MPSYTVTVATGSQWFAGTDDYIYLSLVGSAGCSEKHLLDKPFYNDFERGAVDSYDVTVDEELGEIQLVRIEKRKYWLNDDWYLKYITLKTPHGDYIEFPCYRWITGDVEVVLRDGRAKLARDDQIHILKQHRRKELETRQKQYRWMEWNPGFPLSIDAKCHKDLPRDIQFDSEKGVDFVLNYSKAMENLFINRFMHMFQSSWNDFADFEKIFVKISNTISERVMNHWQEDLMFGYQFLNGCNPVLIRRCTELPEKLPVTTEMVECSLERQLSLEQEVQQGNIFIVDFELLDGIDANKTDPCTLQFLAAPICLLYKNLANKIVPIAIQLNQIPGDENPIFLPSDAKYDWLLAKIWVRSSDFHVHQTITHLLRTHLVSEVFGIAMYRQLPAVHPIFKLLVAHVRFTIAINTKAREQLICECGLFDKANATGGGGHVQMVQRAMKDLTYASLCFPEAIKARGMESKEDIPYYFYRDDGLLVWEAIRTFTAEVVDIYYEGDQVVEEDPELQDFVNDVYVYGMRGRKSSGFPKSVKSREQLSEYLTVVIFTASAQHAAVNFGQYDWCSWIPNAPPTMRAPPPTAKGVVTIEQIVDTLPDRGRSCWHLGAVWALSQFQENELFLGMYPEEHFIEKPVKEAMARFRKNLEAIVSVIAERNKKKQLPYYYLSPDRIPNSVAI
Method: The test method described below measures the ability of compounds to inhibit 5-lipoxygenase activity in human leukocytes.
Whole human blood is collected by venipuncture into EDTA (1.4 mL of 0.25M per 60 mL of whole blood). The red blood cells are sedimented with a 6% dextran/0.9% sodium chloride solution at a ratio of 25 mL whole blood to 15 mL dextran solution. The blood/dextran combination is mixed by inversion and the red blood cells are allowed to settle out for 45 minutes at ambient temperature. The plasma/dextran supernatant is removed then centrifuged at ambient temperature at 3000 rpm for 10 minutes. The plasma/dextran supernatant is removed and the cells are resuspended in 10 mL of the plasma/dextran solution. […] The pellet is then resuspended into Tris buffer containing 1 mM calcium chloride to provide approximately 1.0 X 10^7 cells/mL.
Compounds are dissolved in dimethyl sulfoxide. […] Each concentration is tested in duplicate.
A 15 µL portion of Tris buffer containing 1 mM calcium chloride is added to each well of a 96 well microtiter plate. A 1 µL portion of drug solution or vehicle (dimethyl sulfoxide) is added to each well followed by the addition of an 75 µL portion of the cell suspension. The plates are gently mixed then allowed to stand at ambient temperature for 10 minutes. A 10 µL portion of 30 µM A23187 Calcium Ionophore (prepared by dissolving the ionophore in DMSO and then diluting 1:80 into the Tris buffer) is added to each well except the wells that contain the blanks (The blank wells measure the level of LTC4 production in the absence of A23187.). The plates are gently mixed then incubated at 37°C for 10 minutes.
Following incubation the plates are centrifuged at 2000 rpm for 1.5 minutes and the supernatant is removed as quickly as possible to stop the reaction. The supernatants are frozen at -20°C until they are assayed.
The supernatants are assayed for the presence of Leukotriene C4 by radioimmunoassay which is performed according to the manufacturer's (Advanced Magnetics; Cambridge, MA) instructions.

[2] = system: production of Leukotriene B4; experiment: Rat ex vivo Leukotriene B4 inhibition (oral dosing, blood challenged with A23187); assay type: in vivo, Rats; conditions: two hours post dose
Method: The test method described below measures the ability of a compound when administered orally to rats to inhibit the production of Leukotriene B4 in their blood which is drawn and challenged.
Rats (CD, male, non-fasted, 250 g) are lightly anesthetized with carbon dioxide and an approximately 0.75 mL sample of whole blood is obtained via cardiac puncture. The sample is dispensed into 12 X 75 mm polypropylene tubes containing 8-10 µL of 10,000 units/mL heparin, mixed and then maintained on ice. The rats are allowed to recover approximately one hour then dosed orally with compound dissolved in PEG 400 at a 5 mL/Kg volume. Five (5) rats are utilized per group. Two (2) hours post dose the rats are again anesthetized with carbon dioxide and the blood sampled again via cardiac puncture.
Duplicate 200 µL portions of blood are added to 1.0 mL polypropylene tubes. A 10 µL portion of 1mM A23187 Calcium Ionophore in dimethyl sulfoxide/Tris buffer is added to each tube. The tubes are gently vortexed then incubated in a 37°C water bath for 30 minutes. The tubes are then centrifuged at 4000 rpm for 10 minutes. 50 µL portions of plasma are transferred to 1.0 mL tubes containing 200 µL of methanol. The tubes are vortexed then placed in the freezer overnight.
The tubes are removed from the freezer then centrifuged at 4000 rpm for 10 minutes. […] portions of the methanol/plasma supernatant and 10 µL methanol dilutions of LTB4 standard curve are transferred to 96 well v-bottom microtiter plates. The plates are vacuum dried at 40°C. A 40 µL portion of LTB4 radioimmunoassay buffer is added to each well. The plate is bath sonicated for 5 minutes then assayed according to the manufacturer's (Advanced Magnetics; Cambridge, MA) instructions. Percent inhibition values are obtained by comparing the level of LTB4 in the post-dose samples to the level in the pre-dose samples according to the equation below. % Inhibition =((LTB4 pre-dose) - (LTB4 post-dose))/((LTB4 pre-dose))X 100 [formula]

[3] = system: production of Leukotriene B4 (LTB4); experiment: Dog ex vivo Leukotriene B4 inhibition (oral dosing, blood challenged with calcium ionophore); assay type: in vivo, beagle dogs; conditions: each entry one dog, negative = stimulation of LTB4 production; for % Inhibition 6 hour: 6 hour post dose; for inhibition at 5 mg/kg: Canis lupus familiaris, po
Method: The test method described below measures the ability of a compound when administered orally to dogs to inhibit the production of Leukotriene B4 (LTB4) in their blood which is drawn and challenged at selected time points.
The test is conducted in beagle dogs (male and female; about 10 Kg). Prior to starting, the neck area of the beagle is shaved to allow easy access to the jugular vein. A 3-4 mL sample of blood is drawn from the jugular vein into a heparinized vacutainer. The dog is then dosed using a tube long enough to reach its stomach. The compound is dissolved in PEG 400 at a concentration such that the appropriate dose can be administered in approximately 5 mL. Immediately after the compound is given, a flush using 5 mL of vehicle is given to rinse the dosing tube. At selected time points following the dose, a 3-4 mL sample of blood is drawn.
The blood samples that have been drawn are challenged as soon as possible. A 0.5 mL portion of blood is aliquoted into 3 tubes (1 mL microtiter tubes). A 1 µL portion of 25 mM calcium ionophore in dimethyl sulfoxide is added to 2 of the tubes. A 1 µL portion of dimethyl sulfoxide is added to the third tube. The tubes are lightly mixed then placed in a 37°C water bath for 30 minutes. The tubes are centrifuged at 11,000 rpm for 3 minutes and the plasma supernatant is transferred to clean tubes. A 50 µL portion of this plasma is added to a I mL microtiter tube containing 200 µL of methanol. The tubes are placed in the freezer at -20°C for at least 1 hour then centrifuged at 2000 rpm for 10 minutes. A 10 µL portion of the methanol supematant is dried under vacuum at ambient temperature and then reconstituted in LTB4 buffer. The amount of LTB4 in the sample is determined by radioimmunoassay performed according to the manufacturer's (Advanced Magnetics; Cambridge, MA) instructions. Percent inhibition values are obtained by comparing the level of LTB4 in the post-dose sample to the level in the pre-dose sample according to the equation below. % Inhibition =((LTB4 predose) - (LTB4 postdose))/((LTB4 predose))X 100 [formula]
A number of the compounds that are useful in the practice of the method of the invention were tested. The results are shown in Table 15 below where each entry represents the results from one dog. A negative number indicates stimulation of LTB4 production. All compounds were tested at a dose of 5 mg/Kg.

[4] = system: production of Leukotriene C4 in mouse peritoneal macrophages; experiment: In vitro mouse peritoneal macrophage Leukotriene C4 inhibition (zymosan-stimulated, LTC4 radioimmunoassay); assay type: cell-based; conditions: Zymosan 50 µg/mL
Method: The test method described below measures the ability of compounds to inhibit the production of Leukotriene C4 in mouse peritoneal macrophages.
Mice (female, CD-1, weighing 25 g) are euthanized by exposure to carbon dioxide. The peritoneal cavity is exposed by peeling back the abdominal skin. A 5 mL portion of media (M199 containing 1% fetal bovine serum, 100 units/mL of penicillin, 100 µg/mL of streptomycin, 20 units/mL of heparin and no glutamine) is injected into the exposed peritoneal cavity of each mouse. The lavage fluid is removed and pooled to yield approximately1 X 10^6 macrophages/mL. A 2 mL portion of lavage fluid is added to each well of a 24 well sterile multidish and the macrophages are allowed to adhere to the plate for 2 hours at 37°C in a 5% carbon dioxide atmosphere. The media is removed and each well is washed with 2 mL of phosphate buffered saline (PBS). A 1 mL portion of media, without heparin, but containing 5 µCi/mL of 3H-myoinositol is added to each well and the plates are incubated overnight at 37°C in a 5% carbon dioxide atmosphere. The media is removed and the cells are washed twice with 2 mL portions of PBS. A 1 mL portion of Puck's saline formulation A containing 1 mM calcium chloride, 1 mM magnesium chloride and 10 mM lithium chloride is added to each well. (The Puck's formulation is made first as a 10X solution which contains 4 g of potassium chloride, 80 g of sodium chloride and 10 g of glucose per liter. The Puck's saline formulation A is made using 10 mL of the 10X Puck's formulation, 0.47 mL of 7.5% sodium bicarbonate and 2 mL of 1M N-2-hydroxyethylpiperazine-N'-2-ethanesulfonic acid per 100 mL.)
Compounds are dissolved in dimethyl sulfoxide. Compounds are tested at concentrations of 10, 1 and 0.1 µM. Each concentration is tested in duplicate.
A 1 µL portion of compound solution or vehicle (DMSO) is added to each well and the plates are incubated for 15 minutes at 37°C in a 5% carbon dioxide atmosphere. Zymosan is then added to provide a final concentration of 50 µg/mL in each well and the plate is incubated for 1 to 2 hours at 37°C in a 5% carbon dioxide atmosphere.
Following incubation 200 µL portions of media are transferred to 12 X 75 mm tubes. The tubes are either assayed immediately or stored at -20°C until they can be assayed.
The media is assayed for the presence of Leukotriene C4 by radioimmunoassay which is performed according to the manufacturer's (Advanced Magnetics; Cambridge, MA) instructions.

[5] = 1 h, 1 hour post dose, read-out: % Inhibition 1 hour
[6] = 2 h, 2 hour post dose, read-out: % Inhibition 2 hour

| Structure (SMILES) | IC50 [1] [nM] | % Inhibition 2 hour ([3]; 5 mg/Kg, 2 hour post dose) | % Inhibition 4 hour ([3]; 5 mg/Kg, 4 hour post dose) | % Inhibition 6 hour ([3]; 5 mg/Kg) | inhibition at 5 mg/kg [3, 5] [%] | IC50 [4] [nM] | further results |
| --- | --- | --- | --- | --- | --- | --- | --- |
| CN(O)C(=O)Nc1cccc(OS(=O)(=O)C(F)(F)F)c1 [Compound 2, 1-hydroxy-1-methyl-3-[3-(trifluoromethylsulfonoxy)phenyl]urea] | 40 | – | – | – | – | – | – |
| CSc1cccc(NC(=O)N(C)O)c1 [Compound 3, 1-hydroxy-1-methyl-3-[3-(methylthio)phenyl]urea] | 82 | 99% | 95% | 51% and 84% | 100 | – | %I ([2]; 5 mg/Kg): 39%; inhibition at 5 mg/kg [3, 6]: 100%; inhibition at 5 mg/kg ([3]; 4 h, 4 hour post dose, read-out: % Inhibition 4 hour): 83% |
| CN(O)C(=O)Nc1cccc(SC(F)(F)F)c1 [Compound 4, 1-hydroxy-1-methyl-3-[3-(trifluoromethylthio)phenyl]urea] | 27 | – | – | – | – | – | – |
| CN(O)C(=O)Nc1ccc(F)cc1 [Compound 11, 3-(4-fluorophenyl)-1-hydroxy-1-methylurea] | 49 | – | 77% and 41% | -17% and 30% | 100 | – | %I ([2]; 20 mg/Kg): 26%; %I ([2]; 50 mg/Kg): 20%; inhibition at 5 mg/kg [3, 6]: 100% |
| COc1cccc(NC(=O)N(O)C(C)C)c1 [Compound 22, 1-hydroxy-3-(3-methoxyphenyl)-1-(1-methylethyl)urea] | 740 | 78% and -140% | – | – | 100 | 300 | – |
| Cc1cccc(C)c1NC(=O)N(O)C(C)C [Compound 26, 3-(2,6-dimethylphenyl)-1-hydroxy-1-(1-methylethyl)urea] | > 10000 | – | – | – | – | > 1000 | – |
| CSc1ccc(NC(=O)N(O)C2CCCCC2)cc1 [Compound 31, 1-Cyclohexyl-1-hydroxy-3-[4-(methylthio)phenyl]urea] | 6 | – | – | – | – | 200 | %I ([2]; 25 mg/Kg): 40% |
| COc1cccc(NC(=O)NO)c1 [Compound 33, 1-hydroxy-3-(3-methoxyphenyl)urea] | 9100 | – | – | – | – | – | %I ([2]; 25 mg/Kg): 26% |
| CCCN(O)C(=O)Nc1ccccc1 [Compound 55, 1-hydroxy-3-phenyl-1-propylurea] | 52 | – | – | – | – | – | %I ([2]; 50 mg/Kg): 8% |
| CSc1cccc(NC(=O)N(O)CC(C)C)c1 [Compound 58, 1-Hydroxy-1-(2-methylpropyl)-3-[3-(methylthio)phenyl]urea] | 2 | -21% and -35% | -43% and -63% | 8% and -34% | – | 100 | % Inhibition 1 hour ([3]; 5 mg/Kg, 1 hour post dose): 1% and -24% |
